Measured values as given in ChEMBL document CHEMBL3132773, “Synthesis and biological evaluation of novel 2,3-dihydro-1H-1,5-benzodiazepin-2-ones; potential imaging agents of the metabotropic glutamate 2 receptor” (Medchemcomm, 2013).

How the values were obtained:
Albumin = Albumin (Homo sapiens, UniProt P02768); assay: Protein binding in human serum albumin by chromatography; format: ADME; details: read-out: PPB (converted)
[1] = Lipophilicity, log P of the compound by HPLC analysis; format: physicochemical
[2] = target: Metabotropic glutamate receptor 2 (Homo sapiens, UniProt Q14416); assay: Non-competitive antagonist activity at human recombinant mGluR2 expressed in Chem-1 cell membrane assessed as inhibition of L-glutamate-induced [35S]GTPgammaS binding after 30 mins by liquid scintillation counting analysis; format: functional, cell membranes
Sequence of Metabotropic glutamate receptor 2 (Q14416 whole entry): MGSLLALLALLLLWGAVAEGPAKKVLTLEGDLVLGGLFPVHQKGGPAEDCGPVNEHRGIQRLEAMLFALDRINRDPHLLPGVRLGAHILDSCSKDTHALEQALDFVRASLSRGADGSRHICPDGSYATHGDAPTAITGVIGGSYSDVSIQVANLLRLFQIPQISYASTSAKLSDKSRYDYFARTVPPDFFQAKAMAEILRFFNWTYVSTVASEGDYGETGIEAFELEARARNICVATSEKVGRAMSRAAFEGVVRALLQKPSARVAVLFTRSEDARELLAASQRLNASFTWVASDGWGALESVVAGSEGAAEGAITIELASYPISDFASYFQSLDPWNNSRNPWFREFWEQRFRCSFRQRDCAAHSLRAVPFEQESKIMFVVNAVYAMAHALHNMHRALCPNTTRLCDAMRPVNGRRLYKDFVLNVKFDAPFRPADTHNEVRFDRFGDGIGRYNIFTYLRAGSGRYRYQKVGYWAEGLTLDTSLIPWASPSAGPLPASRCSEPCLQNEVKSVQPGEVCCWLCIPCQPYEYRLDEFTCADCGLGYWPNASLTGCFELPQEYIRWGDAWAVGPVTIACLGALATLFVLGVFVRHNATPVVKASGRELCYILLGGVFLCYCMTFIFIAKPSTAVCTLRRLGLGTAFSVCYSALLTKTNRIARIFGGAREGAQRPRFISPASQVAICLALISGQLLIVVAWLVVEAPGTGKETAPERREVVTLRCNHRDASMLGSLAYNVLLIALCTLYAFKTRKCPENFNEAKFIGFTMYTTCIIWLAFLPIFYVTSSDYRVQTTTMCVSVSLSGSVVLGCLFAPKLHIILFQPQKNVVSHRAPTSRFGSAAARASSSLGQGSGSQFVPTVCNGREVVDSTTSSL

Sequence of Albumin (P02768 whole entry): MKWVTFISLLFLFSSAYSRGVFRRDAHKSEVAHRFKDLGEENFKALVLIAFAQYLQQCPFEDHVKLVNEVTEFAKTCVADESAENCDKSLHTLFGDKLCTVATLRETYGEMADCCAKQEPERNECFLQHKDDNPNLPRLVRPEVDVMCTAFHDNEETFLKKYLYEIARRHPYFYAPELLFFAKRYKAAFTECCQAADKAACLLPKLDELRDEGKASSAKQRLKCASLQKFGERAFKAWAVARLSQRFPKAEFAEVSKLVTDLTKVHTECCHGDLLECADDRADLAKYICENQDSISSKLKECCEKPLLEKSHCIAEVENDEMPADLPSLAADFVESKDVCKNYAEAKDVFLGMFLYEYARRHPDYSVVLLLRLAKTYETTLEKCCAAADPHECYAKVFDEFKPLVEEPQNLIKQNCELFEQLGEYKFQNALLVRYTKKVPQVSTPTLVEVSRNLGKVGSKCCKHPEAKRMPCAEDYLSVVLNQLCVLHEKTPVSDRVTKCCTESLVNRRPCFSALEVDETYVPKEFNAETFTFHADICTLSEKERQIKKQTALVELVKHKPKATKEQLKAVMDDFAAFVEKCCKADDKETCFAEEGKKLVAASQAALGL

| SMILES | fraction unbound (Albumin) | logP [1] | IC50 [2] |
| --- | --- | --- | --- |
| O=C1CC(c2cccc(-n3ccnc3)c2)=Nc2ccc(-c3cccc(I)c3)cc2N1 | 0.0154 | 5.73 | 132 nM |
| O=C1CC(c2cccc(-n3ccnc3)c2)=Nc2cc(OCCCF)c(C(F)(F)F)cc2N1 | 0.0488 | 5.06 | 100 nM |
| O=C1CC(c2cccc(-n3ccnc3)c2)=Nc2ccc(-c3ccc(I)cc3)cc2N1 | 0.0133 | 5.77 | 133 nM |
| Clc1cccc(Cl)c1/C(=C/n1cncn1)OC1CCCCCC1 |  |  | 533 nM |
| O=C1CC(c2cccc(-n3ccnc3)c2)=Nc2ccc(I)cc2N1 | 0.0508 | 4.6 | 89 nM |
| COc1cc2c(cc1C(F)(F)F)NC(=O)CC(c1cccc(-n3ccnc3)c1)=N2 | 0.0759 | 4.67 | 91 nM |
| COc1cc2c(cc1-c1ccc(I)cc1)NC(=O)CC(c1cccc(-n3ccnc3)c1)=N2 | 0.0168 | 5.72 | 89 nM |
